Results as given in patent publication US11078202B2, “β-lactamase inhibitor and use thereof” (priority 2018, dated 2021).
Structures can show the parent of a compound that is named as a salt.

Assays:
Format in all cases: cell-based
[1] = system: Klebsiella pneumoniae XNWB 0002; assay: MIC assay of test compounds combined with ceftazidime (8 μg/mL); details: ceftazidime 8 μg/mL fixed
Procedure, shortened: (§1)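 Broth microdilution in CAMHB per CLSI guidance: colonies grown on TSA at 35±2 °C for 20-24 h were suspended in 0.9% NaCl to OD600 0.1-0.15 and diluted 300-fold in 1.1×CAMHB. Compound plus fixed β-lactam plates were incubated at 35±2 °C for 16-20 h before the MIC was recorded.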

[2] = system: Klebsiella pneumoniae XNWB 0003; assay: as above; details: ceftazidime 8 μg/mL fixed
Procedure, shortened: as §1

[3] = system: Klebsiella pneumoniae XNWB 0004; assay: as above; details: ceftazidime 8 μg/mL fixed
Procedure, shortened: as §1

[4] = system: Klebsiella pneumoniae XNWB 0001; assay: as above; details: ceftazidime 8 μg/mL fixed
Procedure, shortened: as §1

[5] = system: Pseudomonas aeruginosa XNWB 0008; assay: as above; details: ceftazidime 8 μg/mL fixed
Procedure, shortened: as §1

[6] = system: Klebsiella pneumoniae XNWB 0006; assay: as above; details: ceftazidime 8 μg/mL fixed
Procedure, shortened: as §1

[7] = system: Acinetobacter baumannii XNWB 0007; assay: as above; details: ceftazidime 8 μg/mL fixed
Procedure, shortened: as §1

[8] = system: Klebsiella pneumoniae XNWB 0005; assay: as above; details: ceftazidime 8 μg/mL fixed
Procedure, shortened: as §1

[9] = system: Klebsiella pneumoniae XNWB 0002; assay: MIC assay of test compounds combined with imipenem (4 μg/mL); details: imipenem 4 μg/mL fixed
Procedure, shortened: as §1

[10] = system: Klebsiella pneumoniae XNWB 0003; assay: as above; details: imipenem 4 μg/mL fixed
Procedure, shortened: as §1

[11] = system: Klebsiella pneumoniae XNWB 0004; assay: as above; details: imipenem 4 μg/mL fixed
Procedure, shortened: as §1

[12] = system: Klebsiella pneumoniae XNWB 0001; assay: as above; details: imipenem 4 μg/mL fixed
Procedure, shortened: as §1

[13] = system: Pseudomonas aeruginosa XNWB 0008; assay: as above; details: imipenem 4 μg/mL fixed
Procedure, shortened: as §1

[14] = system: Klebsiella pneumoniae XNWB 0006; assay: as above; details: imipenem 4 μg/mL fixed
Procedure, shortened: as §1

[15] = system: Acinetobacter baumannii XNWB 0007; assay: as above; details: imipenem 4 μg/mL fixed
Procedure, shortened: as §1

[16] = system: Klebsiella pneumoniae XNWB 0005; assay: as above; details: imipenem 4 μg/mL fixed
Procedure, shortened: as §1

Row | Structure (SMILES) | The minimum concentration of test compounds combined with ceftazidime (8 μg/mL) for bacteriostasis [1] | The minimum concentration of test compounds combined with ceftazidime (8 μg/mL) for bacteriostasis [2] | The minimum concentration of test compounds combined with ceftazidime (8 μg/mL) for bacteriostasis [3] | The minimum concentration of test compounds combined with ceftazidime (8 μg/mL) for bacteriostasis [4] | The minimum concentration of test compounds combined with ceftazidime (8 μg/mL) for bacteriostasis [5] | The minimum concentration of test compounds combined with ceftazidime (8 μg/mL) for bacteriostasis [6] | The minimum concentration of test compounds combined with ceftazidime (8 μg/mL) for bacteriostasis [7] | The minimum concentration of test compounds combined with ceftazidime (8 μg/mL) for bacteriostasis [8] | The minimum concentration of test compounds combined with imipenem (4 μg/mL) for bacteriostasis [9] | The minimum concentration of test compounds combined with imipenem (4 μg/mL) for bacteriostasis [10] | The minimum concentration of test compounds combined with imipenem (4 μg/mL) for bacteriostasis [11] | The minimum concentration of test compounds combined with imipenem (4 μg/mL) for bacteriostasis [12] | The minimum concentration of test compounds combined with imipenem (4 μg/mL) for bacteriostasis [13] | The minimum concentration of test compounds combined with imipenem (4 μg/mL) for bacteriostasis [14] | The minimum concentration of test compounds combined with imipenem (4 μg/mL) for bacteriostasis [15] | The minimum concentration of test compounds combined with imipenem (4 μg/mL) for bacteriostasis [16]
1 | NCCCc1nnc([C@@H]2CC3(CC3)[C@@H]3CN2C(=O)N3OS(=O)(=O)O)o1 [Example 6, sodium (1R,4S)-4-(5-(3-aminopropyl)-1,3,4-oxadiazol-2-yl)-6-oxo-5,7-diazaspiro [bicycle[3.2.1]octane-2,1′-cyclopropan]-7-yl sulfate] | A (A: <8 μg/mL) | B (B: 8-16 μg/mL) | B (B: 8-16 μg/mL) | A (A: <8 μg/mL) | C (C: 16-128 μg/mL) | A (A: <8 μg/mL) | C (C: 16-128 μg/mL) | B (B: 8-16 μg/mL) | A (A: <8 μg/mL) | A (A: <8 μg/mL) | A (A: <8 μg/mL) | A (A: <8 μg/mL) | B (B: 8-16 μg/mL) | A (A: <8 μg/mL) | B (B: 8-16 μg/mL) | A (A: <8 μg/mL)
2 | N[C@H]1C[C@H](c2cc([C@@H]3CC4(CC4)[C@@H]4CN3C(=O)N4OS(=O)(=O)O)no2)C1 [Example 25, (1R,4S)-4-(5-((1S,3S)-3-aminocyclobutyl)isoxazol-3-yl)-6-oxo-5,7-diazaspiro[bicycle [3.2.1]octane-2,1′-cyclopropan]-7-yl sulfate] | A (A: <8 μg/mL) | A (A: <8 μg/mL) | B (B: 8-16 μg/mL) | A (A: <8 μg/mL) | B (B: 8-16 μg/mL) | A (A: <8 μg/mL) | C (C: 16-128 μg/mL) | A (A: <8 μg/mL) | A (A: <8 μg/mL) | A (A: <8 μg/mL) | A (A: <8 μg/mL) | A (A: <8 μg/mL) | A (A: <8 μg/mL) | A (A: <8 μg/mL) | C (C: 16-128 μg/mL) | A (A: <8 μg/mL)
3 | O=C(NC1CCNCC1)[C@@H]1CC2(CC2)[C@@H]2CN1C(=O)N2OS(=O)(=O)O [Example 27, (1R,4S)-6-oxo-4-(piperidin-4-ylaminoformyl)-5,7-diazaspiro[bicyclo[3.2.1]octane-2,1′-cyclopropan]-7-yl sulfate] | A (A: <8 μg/mL) | B (B: 8-16 μg/mL) | B (B: 8-16 μg/mL) | A (A: <8 μg/mL) | A (A: <8 μg/mL) | A (A: <8 μg/mL) | C (C: 16-128 μg/mL) | A (A: <8 μg/mL) | A (A: <8 μg/mL) | A (A: <8 μg/mL) | A (A: <8 μg/mL) | A (A: <8 μg/mL) | A (A: <8 μg/mL) | A (A: <8 μg/mL) | C (C: 16-128 μg/mL) | A (A: <8 μg/mL)
4 | NCCNC[C@H](O)c1nnc([C@@H]2CC3(CC3)[C@@H]3CN2C(=O)N3OS(=O)(=O)O)o1 [Example 31, (1R,4S)-4-(5-((S)-2-((2-aminoethyl)amino)-1-hydroxyethyl)-1,3,4-oxadiazol-2-yl)-6-oxo-5,7-diazaspiro[bicyclo[3.2.1]octane-2,1′-cyclopropan]-7-yl sulfate] | A (A: <8 μg/mL) | A (A: <8 μg/mL) | B (B: 8-16 μg/mL) | A (A: <8 μg/mL) | C (C: 16-128 μg/mL) | A (A: <8 μg/mL) | C (C: 16-128 μg/mL) | A (A: <8 μg/mL) | A (A: <8 μg/mL) | A (A: <8 μg/mL) | A (A: <8 μg/mL) | A (A: <8 μg/mL) | B (B: 8-16 μg/mL) | A (A: <8 μg/mL) | B (B: 8-16 μg/mL) | A (A: <8 μg/mL)
